Source: patent US20150164916A1, “ROFLUMILAST COMPOSITIONS FOR THE TREATMENT OF COPD” (Forest Laboratories Holdings Ltd., priority 2012, published 2015)

How the values were obtained:
Type in all cases: cell-based, human
MKP1 = test: Real time RT-PCR of MKP1 mRNA in CSE-stimulated neutrophils from COPD patients; settings: RNO 1 nM and 1 μM, DEX 1 μM, RNO 1 nM plus DEX 1 μM, NAC 1 mM for 1 h, then CSE 5% 6 h
Experimental: (§1) Neutrophils and monocytes were isolated from peripheral venous blood by standard laboratory procedures. In brief, peripheral venous blood was mixed with dextran 500 at 3% (in 0.9% saline) in a proportion of 2:1. This mixture was incubated at room temperature for 30 min until erythrocytes were sedimented. The upper phase was carefully collected and added on Ficoll-Paque Histopaque 1077 (Amershan Pharmacia Biotech, Barcelona, Spain) density gradient in a proportion of 3:1. The two phases generated were centrifuged at 150 g, 4° C. for 30 min. […]
(§2) CSE was prepared as previously outlined (Milara et al.; Ortiz et al.). […] The quality of the prepared CSE solution was assessed based on the absorbance at 320 nm, which is the specific absorption wavelength of peroxynitrite. Stock solutions with an absorbance value of 3.0±0.1 were used. […]
Total RNA was obtained from isolated neutrophils under basal conditions or after different drug and stimulation periods defined above by using TriPure® Isolation Reagent (Roche, Indianapolis, USA). […] Relative quantification of these transcripts was determined with the 2^−ΔΔCt method using glyceraldehyde phosphate dehydrogenase (GAPDH) as endogenous control (Applied Biosystems; 4352339E) and normalized to control group as previously described (Milara et al., 2009).
Then, mRNA was isolated and quantified for different genes.

p-ERK1/2 = test: Western blot of ERK1/2 phosphorylation in CSE-stimulated neutrophils from COPD patients; settings: RNO 1 nM and 1 μM, DEX 1 μM, RNO 1 nM plus DEX 1 μM, NAC 1 mM for 1 h, then CSE 5% 20 min
Experimental: as §1, §2
Western blot analysis was used to detect changes in p-ERK1/2 (42-44 kD). […] Cells were then centrifuged and the total protein was extracted using a lysis buffer consisting of a complete inhibitor cocktail plus 1 mM ethylenediaminetetraacectic acid (Roche Diagnostics Ltd, West Sussex, UK) with 20 mM Tris base, 0.9% NaCl, 0.1% Triton X-100, 1 mM dithiothreitol and 1 μg mL^−1 pepstatin A. The Bio-Rad assay (Bio-Rad Laboratories Ltd., Herts, UK) was used (following manufacturer's instructions) to quantify the level of protein in each sample to ensure equal protein loading. […]

GM-CSF release = test: LPS-induced GM-CSF release in isolated peripheral blood neutrophils (LUMINEX); settings: LPS (1 μg/ml), 6 h
Experimental: Neutrophils and monocytes were isolated from peripheral venous blood by standard laboratory procedures. In brief, peripheral venous blood was mixed with dextran 500 at 3% (in 0.9% saline) in a proportion of 2:1. This mixture was incubated at room temperature for 30 min until erythrocytes were sedimented. […] The two phases generated were centrifuged at 150 g, 4° C. for 30 min. Thus, the interface was collected to isolate monocytes, and the pellet obtained (which is consisted a mixture of neutrophils and low proportion of residual erythrocytes and traces of eosinophils and basophils) was resuspended in an erythrocyte lysis buffer (Biolegend, UK) for 5 min in ice. Cell suspension was washed two times with phosphate buffer (PBS).
Peripheral neutrophil cell suspension was adjusted to 500×10^3 cells per well in 24-well plates and incubated in RPMI culture medium for 1 h into the incubator at 37° C., 5% CO2. […] Both the stimulus and drug were remained together for 6 h. Supernatants were collected and centrifuged at 120 g for 5 min, and the free-cell supernatant was used to measure IL-8, MMP-9, IL-1β, GM-CSF and CCL-5.
IL-8 was determined by using commercially available enzyme-linked immunosorbent assay kit for IL-8 (R&D Systems, UK) according to the manufacturer's protocol. MMP-9, IL-1β, GM-CSF and CCL-5 were measured by LUMINEX technology according to the manufacturer's protocol.
Data were presented as mean±SEM. IC50 values were calculated for each drug and their combinations. Statistical analysis of results was carried out by analysis of variance (ANOVA) followed by Bonferroni test, by Student's t test, or by non-parametric tests as appropriate (GraphPad Software Inc, San Diego, Calif., USA). Significance was accepted when P<0.05. For clinical correlations of lung function and gene expression from neutrophils the non-parametric Spearman correlation analysis was carried out.

Compound: O=C(Nc1c(Cl)c[n+]([O-])cc1Cl)c1ccc(OC(F)F)c(OCC2CC2)c1 [RNO, roflumilast N-oxide]
- effect on CSE-induced down-regulation of MKP1 mRNA expression (MKP1): reversed the effect of CSE
- effect on CSE-induced phosphorylation of ERK1/2 (p-ERK1/2): effectively inhibited
- -log IC50, inhibition of GM-CSF release (GM-CSF release; neutrophils from COPD patients): 8.10 ± 0.22
- Maximal % Inhibition of GM-CSF release (GM-CSF release; neutrophils from COPD patients): 86.6 ± 8.04%
- -log IC50, inhibition of GM-CSF release (GM-CSF release; neutrophils from HEALTHY): 8.25 ± 0.21
- Maximal % Inhibition of GM-CSF release (GM-CSF release; neutrophils from HEALTHY): 78.87 ± 6.57%
